Assay results published in PubChem BioAssay AID2820 (Sanford-Burnham Center for Chemical Genomics, 2010).

Target: G-protein coupled receptor 55 (Homo sapiens) (UniProt Q9Y2T6)
Test: GPR55 antagonist potency of analogs, SAR follow-up, imaging, U2OS, beta-arrestin-GFP, LPI agonist, set 2 (AID 2820)
Conditions: LPI antagonism

Sequence of G-protein coupled receptor 55 (Homo sapiens) (Q9Y2T6 whole entry, looked up): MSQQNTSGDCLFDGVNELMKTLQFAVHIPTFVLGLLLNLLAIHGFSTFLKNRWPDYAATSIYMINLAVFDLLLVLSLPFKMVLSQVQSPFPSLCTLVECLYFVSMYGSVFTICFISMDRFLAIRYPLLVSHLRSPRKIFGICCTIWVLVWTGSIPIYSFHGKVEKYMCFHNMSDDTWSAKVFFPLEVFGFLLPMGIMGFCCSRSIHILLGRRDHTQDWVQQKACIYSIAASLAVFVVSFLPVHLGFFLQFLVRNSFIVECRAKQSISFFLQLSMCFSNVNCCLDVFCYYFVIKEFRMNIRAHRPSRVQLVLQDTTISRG

Structure (SMILES) | IC50 [µM]
Cc1cc(OCC(=O)Nc2ccc(S(=O)(=O)NC3=NCCCCC3)cc2)c(C(C)C)cc1Cl | 1.09
Cc1nc(N2CCN(C(=O)c3ccco3)CC2)c2c3c(sc2n1)CCCC3 | 0.702
O=C(c1ccco1)N1CCN(c2nc(C3CC3)nc3sc4c(c23)CCCC4)CC1 | 0.865
Cc1ccc(C2(C(=O)N3CCC(n4nc(-c5ccccc5)oc4=O)CC3)CC2)cc1 | 1.08
